Measured values: US20130012466A1 (priority 2006, published 2013)
Where two headings read alike, the source gives them in different places.

Experiments:
SF-268 = assay: Cytotoxicity assay (cell titer-glo and calcein AM), SF-268; settings: SF-268, % error in parentheses
A549 = assay: Cytotoxicity assay (cell titer-glo and calcein AM), A549; settings: A549, % error in parentheses
NCI-H460 = assay: Cytotoxicity assay (cell titer-glo and calcein AM), NCI-H460; settings: NCI-H460, % error in parentheses
ADR-RES = assay: Cytotoxicity assay (cell titer-glo and calcein AM), ADR-RES; settings: NCI/ADR RES, % error in parentheses
Du145 = assay: Cytotoxicity assay (cell titer-glo and calcein AM), Du145; settings: Du145, % error in parentheses
[1] = test system: mouse mammary normal epithelial control cell line; assay: Cytotoxicity assay, normal control cell line
Hep3B = assay: Cytotoxicity assay (cell titer-glo and calcein AM), Hep3B; settings: Hep 3B, % error in parentheses
MCF7 = assay: Cytotoxicity assay (cell titer-glo and calcein AM), MCF7
SK-OV-3 = assay: Cytotoxicity assay (cell titer-glo and calcein AM), SK-OV-3; settings: SK-OV-3, % error in parentheses
[2] = read-out: Cytotoxicity IC50, SF-268, CTG, CTG (cell titer-glo) readout
[3] = read-out: Cytotoxicity IC50, SF-268, calcein, calcein AM readout
[4] = read-out: Cytotoxicity IC50, A549, CTG, CTG (cell titer-glo) readout
[5] = read-out: Cytotoxicity IC50, A549, calcein, calcein AM readout
[6] = read-out: Cytotoxicity IC50, NCI-H460, CTG, CTG (cell titer-glo) readout
[7] = read-out: Cytotoxicity IC50, NCI-H460, calcein, calcein AM readout
[8] = read-out: Cytotoxicity IC50, NCI/ADR RES, CTG, CTG (cell titer-glo) readout
[9] = read-out: Cytotoxicity IC50, NCI/ADR RES, calcein, calcein AM readout
[10] = read-out: Cytotoxicity IC50, Du145, CTG, CTG (cell titer-glo) readout
[11] = read-out: Cytotoxicity IC50, Du145, calcein, calcein AM readout
[12] = read-out: Cytotoxicity IC50, NmuMG, CTG, CTG (cell titer-glo) readout, % error in parentheses
[13] = read-out: Cytotoxicity IC50, NmuMG, calcein, calcein AM readout, % error in parentheses
[14] = read-out: Cytotoxicity IC50, Hep 3B, CTG, CTG (cell titer-glo) readout
[15] = read-out: Cytotoxicity IC50, Hep 3B, calcein, calcein AM readout
[16] = read-out: Cytotoxicity IC50, MCF7, CTG, CTG (cell titer-glo) readout, % error in parentheses
[17] = read-out: Cytotoxicity IC50, MCF7, calcein, calcein AM readout, % error in parentheses
[18] = read-out: Cytotoxicity IC50, SK-OV-3, CTG, CTG (cell titer-glo) readout
[19] = read-out: Cytotoxicity IC50, SK-OV-3, calcein, calcein AM readout

Question: With `COc1cc2c(c(OC)c1OC)-c1ccc(OC)c(=O)cc1C(NC(=O)CN(OC)C1OC(C)C(O)C(O)C1O)CC2` [Col14, L-fucoside] as the molecule, how does the IC50 (SF-268; [2]) read?
Answer: 5.28 µM

Question: And the IC50 (SF-268; [3])?
Answer: 9.89 µM

Question: What about the IC50 (A549; [4]) of the same molecule?
Answer: > 10 µM

Question: And the IC50 (A549; [5])?
Answer: > 10 µM

Question: What about the IC50 (NCI-H460; [6]) of the same molecule?
Answer: 9.03 µM

Question: And the IC50 (NCI-H460; [7])?
Answer: > 10 µM

Question: And the IC50 (ADR-RES; [8])?
Answer: > 10 µM

Question: What about the IC50 (ADR-RES; [9]) of the same molecule?
Answer: > 10 µM

Question: What about the IC50 (Du145; [10]) of the same molecule?
Answer: > 10 µM

Question: What about the IC50 (Du145; [11]) of the same molecule?
Answer: > 10 µM

Question: And the IC50 [1, 12]?
Answer: > 10 µM

Question: And the IC50 [1, 13]?
Answer: > 10 µM

Question: And the IC50 (Hep3B; [14])?
Answer: > 10 µM

Question: What about the IC50 (Hep3B; [15]) of the same molecule?
Answer: > 10 µM

Question: What about the IC50 (MCF7; [16]) of the same molecule?
Answer: 4.95 µM

Question: And the IC50 (MCF7; [17])?
Answer: > 10 µM

Question: What about the IC50 (SK-OV-3; [18]) of the same molecule?
Answer: > 10 µM

Question: And the IC50 (SK-OV-3; [19])?
Answer: > 10 µM

Question: With `COc1cc2c(c(OC)c1OC)-c1ccc(OC)c(=O)cc1[C@@H](NC(=O)CN(OC)[C@@H]1O[C@H](C(=O)O)[C@@H](O)[C@H](O)[C@H]1O)CC2` [Col15, D-glucuronoside] as the molecule, how does the IC50 (SF-268; [2]) read?
Answer: 1.17 µM

Question: And the IC50 (SF-268; [3])?
Answer: 1.02 µM

Question: What about the IC50 (A549; [4]) of the same molecule?
Answer: 2.21 µM

Question: And the IC50 (A549; [5])?
Answer: 3.92 µM

Question: What about the IC50 (NCI-H460; [6]) of the same molecule?
Answer: 1.08 µM

Question: And the IC50 (NCI-H460; [7])?
Answer: 0.96 µM

Question: And the IC50 (ADR-RES; [8])?
Answer: 1.66 µM

Question: What about the IC50 (ADR-RES; [9]) of the same molecule?
Answer: 1.54 µM

Question: And the IC50 (Du145; [10])?
Answer: 1.27 µM

Question: And the IC50 (Du145; [11])?
Answer: 1.64 µM

Question: What about the IC50 [1, 12] of the same molecule?
Answer: > 5 µM

Question: And the IC50 [1, 13]?
Answer: > 5 µM

Question: And the IC50 (Hep3B; [14])?
Answer: 3.28 µM

Question: What about the IC50 (Hep3B; [15]) of the same molecule?
Answer: 3.44 µM

Question: What about the IC50 (MCF7; [16]) of the same molecule?
Answer: 0.99 µM

Question: And the IC50 (MCF7; [17])?
Answer: 4.41 µM

Question: And the IC50 (SK-OV-3; [18])?
Answer: 1.07 µM

Question: And the IC50 (SK-OV-3; [19])?
Answer: 2.88 µM

Question: Which IC50 (SF-268; [2]) does the source give for `COc1cc2c(c(OC)c1OC)-c1ccc(OC)c(=O)cc1C(NC(=O)CN(OC)C1OCC(O)C(O)C1O)CC2` [Col17, L-xyloside] here?
Answer: 5.93 µM

Question: What about the IC50 (SF-268; [3]) of the same molecule?
Answer: 9.72 µM

Question: And the IC50 (A549; [4])?
Answer: 9.4 µM

Question: What about the IC50 (A549; [5]) of the same molecule?
Answer: > 10 µM

Question: What about the IC50 (NCI-H460; [6]) of the same molecule?
Answer: 5.17 µM

Question: And the IC50 (NCI-H460; [7])?
Answer: 5.61 µM

Question: What about the IC50 (ADR-RES; [8]) of the same molecule?
Answer: > 10 µM

Question: What about the IC50 (ADR-RES; [9]) of the same molecule?
Answer: > 10 µM

Question: What about the IC50 (Du145; [10]) of the same molecule?
Answer: 8.48 µM

Question: What about the IC50 (Du145; [11]) of the same molecule?
Answer: > 10 µM

Question: And the IC50 [1, 12]?
Answer: > 10 µM

Question: What about the IC50 [1, 13] of the same molecule?
Answer: > 10 µM

Question: What about the IC50 (Hep3B; [14]) of the same molecule?
Answer: > 10 µM

Question: What about the IC50 (Hep3B; [15]) of the same molecule?
Answer: > 10 µM

Question: And the IC50 (MCF7; [16])?
Answer: 6.22 µM

Question: What about the IC50 (MCF7; [17]) of the same molecule?
Answer: 5.09 µM

Question: And the IC50 (SK-OV-3; [18])?
Answer: > 10 µM

Question: And the IC50 (SK-OV-3; [19])?
Answer: > 10 µM

Question: `COc1cc2c(c(OC)c1OC)-c1ccc(OC)c(=O)cc1C(NC(=O)CN(OC)C1OCC(O)C(O)C1O)CC2` [Col20, D-arabinoside] was tested. Which IC50 (SF-268; [2]) did it give?
Answer: 2.54 µM

Question: What about the IC50 (SF-268; [3]) of the same molecule?
Answer: 3.95 µM

Question: What about the IC50 (A549; [4]) of the same molecule?
Answer: 9.07 µM

Question: And the IC50 (A549; [5])?
Answer: > 10 µM

Question: And the IC50 (NCI-H460; [6])?
Answer: 5.21 µM

Question: What about the IC50 (NCI-H460; [7]) of the same molecule?
Answer: 3.71 µM

Question: And the IC50 (ADR-RES; [8])?
Answer: 7.85 µM

Question: What about the IC50 (ADR-RES; [9]) of the same molecule?
Answer: 7.74 µM

Question: And the IC50 (Du145; [10])?
Answer: 2.41 µM

Question: And the IC50 (Du145; [11])?
Answer: 3.74 µM

Question: And the IC50 [1, 12]?
Answer: > 10 µM

Question: And the IC50 [1, 13]?
Answer: > 10 µM

Question: And the IC50 (Hep3B; [14])?
Answer: > 10 µM

Question: And the IC50 (Hep3B; [15])?
Answer: > 10 µM

Question: What about the IC50 (MCF7; [16]) of the same molecule?
Answer: 4.44 µM

Question: What about the IC50 (MCF7; [17]) of the same molecule?
Answer: 2.35 µM

Question: And the IC50 (SK-OV-3; [18])?
Answer: > 10 µM

Question: What about the IC50 (SK-OV-3; [19]) of the same molecule?
Answer: > 10 µM

Question: Which results are given for `COc1cc2c(c(OC)c1OC)-c1ccc(OC)c(=O)cc1C(NC(=O)CN(OC)C1OCC(O)C(O)C1O)CC2` [Col22, L-riboside]?
Answer: IC50 (SF-268; [2]): 4.16 µM; IC50 (SF-268; [3]): 4.86 µM; IC50 (A549; [4]): 4.22 µM; IC50 (A549; [5]): 9.44 µM; IC50 (NCI-H460; [6]): 1.16 µM; IC50 (NCI-H460; [7]): 2 µM; IC50 (ADR-RES; [8]): 2.23 µM; IC50 (ADR-RES; [9]): 3.56 µM; IC50 (Du145; [10]): 2.38 µM; IC50 (Du145; [11]): > 10 µM; IC50 [1, 12]: > 10 µM; IC50 [1, 13]: > 10 µM; IC50 (Hep3B; [14]): 2.44 µM; IC50 (Hep3B; [15]): 3.95 µM; IC50 (MCF7; [16]): 4.27 µM; IC50 (MCF7; [17]): 2.87 µM; IC50 (SK-OV-3; [18]): 4.84 µM; IC50 (SK-OV-3; [19]): 4.84 µM

Question: Which results are given for `COc1cc2c(c(OC)c1OC)-c1ccc(OC)c(=O)cc1[C@@H](NC(C)=O)CC2` [Col]?
Answer: IC50 (SF-268; [2]): > 10 µM; IC50 (SF-268; [3]): > 10 µM; IC50 (ADR-RES; [8]): > 10 µM; IC50 (ADR-RES; [9]): 6.32 µM; IC50 (Du145; [10]): > 10 µM; IC50 (Du145; [11]): 4.67 µM; IC50 (Hep3B; [14]): > 10 µM; IC50 (Hep3B; [15]): 9.38 µM; IC50 (SK-OV-3; [18]): > 10 µM

Question: `COc1cccc2c1C(=O)c1c(O)c3c(c(O)c1C2=O)C[C@@](O)(C(=O)CO)C[C@@H]3O[C@H]1C[C@H](N)[C@H](O)[C@H](C)O1` [doxorubi] was tested. Which IC50 (SF-268; [2]) did it give?
Answer: 0.249 µM

Question: What about the IC50 (SF-268; [3]) of the same molecule?
Answer: 0.385 µM

Question: And the IC50 (ADR-RES; [8])?
Answer: 0.57 µM

Question: And the IC50 (Du145; [10])?
Answer: 0.842 µM

Question: What about the IC50 (Du145; [11]) of the same molecule?
Answer: 0.339 µM

Question: And the IC50 (Hep3B; [14])?
Answer: 0.519 µM

Question: What about the IC50 (Hep3B; [15]) of the same molecule?
Answer: 0.268 µM

Question: What about the IC50 (SK-OV-3; [18]) of the same molecule?
Answer: 0.394 µM

Question: What about the IC50 (SK-OV-3; [19]) of the same molecule?
Answer: 0.621 µM
